In ChEMBL document CHEMBL1136219, “Synthesis and SAR evaluation of oxadiazolopyrazines as selective Haemophilus influenzae antibacterial agents” (2003):
Values after ≈ are worked out from the molar mass of the structure shown.

Columns and labels:
Type in all cases: functional
JIYOYE = test: Cytotoxicity against human Jijoye B cell
Streptococcus pneumoniae = test: Minimum inhibitory concentration against Streptococcus pneumoniae
Staphylococcus aureus = test: Minimum inhibitory concentration against Staphylococcus aureus
Candida albicans = test: Minimum inhibitory concentration against Candida albicans
Escherichia coli = test: Minimum inhibitory concentration against Escherichia coli
Haemophilus influenzae = test: Minimum inhibitory concentration against Haemophilus influenzae

Structure (SMILES) | MIC (Streptococcus pneumoniae) | MIC (Staphylococcus aureus) | MIC (Candida albicans) | MIC (Escherichia coli) | MIC (Haemophilus influenzae) | Cytotoxicity (JIYOYE)
Oc1nc2nonc2nc1-c1ccc2c(c1)OCO2 | 128 µg/mL (≈ 496 µM) | 64 µg/mL (≈ 248 µM) | > 128 µg/mL | > 128 µg/mL | 2 µg/mL (≈ 7.75 µM) | >100 µg/mL
COc1ccc(-c2nc3nonc3nc2O)cc1 | 128 µg/mL (≈ 524 µM) | 64 µg/mL (≈ 262 µM) | > 128 µg/mL | > 128 µg/mL | 4 µg/mL (≈ 16.4 µM) | >100 µg/mL
Oc1nc2nonc2nc1-c1ccc(C(F)(F)F)cc1 | 64 µg/mL (≈ 227 µM) | 32 µg/mL (≈ 113 µM) | > 128 µg/mL | > 128 µg/mL | 4 µg/mL (≈ 14.2 µM) | >100 µg/mL
Oc1nc2nonc2nc1-c1ccc(N2CCCCC2)cc1 | 128 µg/mL (≈ 431 µM) | 64 µg/mL (≈ 215 µM) | > 128 µg/mL | > 128 µg/mL | 64 µg/mL (≈ 215 µM) | >100 µg/mL
Oc1nc2nonc2nc1-c1cccc(C(F)(F)F)c1 | 128 µg/mL (≈ 454 µM) | 32 µg/mL (≈ 113 µM) | > 128 µg/mL | > 128 µg/mL | 2 µg/mL (≈ 7.09 µM) | >100 µg/mL
O=[N+]([O-])c1cccc(-c2nc3nonc3nc2O)c1 | 64 µg/mL (≈ 247 µM) | 32 µg/mL (≈ 123 µM) | > 128 µg/mL | > 128 µg/mL | 1 µg/mL (≈ 3.86 µM) | >100 µg/mL
Oc1nc2nonc2nc1-c1ccc(C2CCCCC2)cc1 | 64 µg/mL (≈ 216 µM) | 4 µg/mL (≈ 13.5 µM) | > 128 µg/mL | > 128 µg/mL | 16 µg/mL (≈ 54 µM) | 60 µg/mL
Oc1nc2nonc2nc1-c1ccc(Cl)cc1 | 128 µg/mL (≈ 515 µM) | 16 µg/mL (≈ 64.4 µM) | > 128 µg/mL | > 128 µg/mL | 1 µg/mL (≈ 4.02 µM) | >100 µg/mL
O=[N+]([O-])c1ccc(-c2nc3nonc3nc2O)cc1 | 128 µg/mL (≈ 494 µM) | > 128 µg/mL | > 128 µg/mL | > 128 µg/mL | 8 µg/mL (≈ 30.9 µM) | >100 µg/mL
COc1cc(-c2nc3nonc3nc2O)cc(OC)c1OC | 128 µg/mL (≈ 421 µM) | > 128 µg/mL | > 128 µg/mL | > 128 µg/mL | 128 µg/mL (≈ 421 µM) | >100 µg/mL
Oc1nc2nonc2nc1-c1ccc(N2CCOCC2)cc1 | 64 µg/mL (≈ 214 µM) | > 128 µg/mL | > 128 µg/mL | > 128 µg/mL | 32 µg/mL (≈ 107 µM) | >100 µg/mL
CN(C)c1ccc(-c2nc3nonc3nc2O)cc1 | 128 µg/mL (≈ 498 µM) | > 128 µg/mL | > 128 µg/mL | > 128 µg/mL | 4 µg/mL (≈ 15.5 µM) | >100 µg/mL
Oc1nc2nonc2nc1-c1ccc(Oc2ccccc2)cc1 | 64 µg/mL (≈ 209 µM) | 4 µg/mL (≈ 13.1 µM) | > 128 µg/mL | > 128 µg/mL | 8 µg/mL (≈ 26.1 µM) | 60 µg/mL
Oc1nc2nonc2nc1-c1ccc(Br)cc1 | 64 µg/mL (≈ 218 µM) | 16 µg/mL (≈ 54.6 µM) | > 128 µg/mL | > 128 µg/mL | 1 µg/mL (≈ 3.41 µM) | >100 µg/mL
COc1cccc(-c2nc3nonc3nc2O)c1 | 64 µg/mL (≈ 262 µM) | 128 µg/mL (≈ 524 µM) | > 128 µg/mL | > 128 µg/mL | 8 µg/mL (≈ 32.8 µM) | >100 µg/mL

Further lines, with some results ahead:

MIC (Streptococcus pneumoniae) | MIC (Staphylococcus aureus) | MIC (Candida albicans) | MIC (Escherichia coli) | MIC (Haemophilus influenzae) | Structure (SMILES) | Cytotoxicity (JIYOYE)
64 µg/mL (≈ 257 µM) | 128 µg/mL (≈ 515 µM) | > 128 µg/mL | > 128 µg/mL | 1 µg/mL (≈ 4.02 µM) | Oc1nc2nonc2nc1-c1cccc(Cl)c1 | >100 µg/mL
64 µg/mL (≈ 276 µM) | 64 µg/mL (≈ 276 µM) | > 128 µg/mL | 128 µg/mL (≈ 551 µM) | 1 µg/mL (≈ 4.31 µM) | Oc1nc2nonc2nc1-c1cccc(F)c1 | >100 µg/mL
128 µg/mL (≈ 515 µM) | > 128 µg/mL | > 128 µg/mL | > 128 µg/mL | 128 µg/mL (≈ 515 µM) | Oc1nc2nonc2nc1-c1ccccc1Cl | >100 µg/mL
128 µg/mL (≈ 598 µM) | 128 µg/mL (≈ 598 µM) | > 128 µg/mL | 128 µg/mL (≈ 598 µM) | 1 µg/mL (≈ 4.67 µM) | Oc1nc2nonc2nc1-c1ccccc1 | >100 µg/mL
128 µg/mL (≈ 581 µM) | 64 µg/mL (≈ 291 µM) | > 128 µg/mL | 128 µg/mL (≈ 581 µM) | 1 µg/mL (≈ 4.54 µM) | Oc1nc2nonc2nc1-c1ccsc1 | 100 µg/mL
64 µg/mL (≈ 218 µM) | 32 µg/mL (≈ 109 µM) | > 128 µg/mL | > 128 µg/mL | 0.5 µg/mL (≈ 1.71 µM) | Oc1nc2nonc2nc1-c1cccc(Br)c1 | >100 µg/mL
64 µg/mL (≈ 276 µM) | > 128 µg/mL | > 128 µg/mL | > 128 µg/mL | 8 µg/mL (≈ 34.5 µM) | Oc1nc2nonc2nc1-c1ccccc1F | >100 µg/mL
64 µg/mL (≈ 291 µM) | 32 µg/mL (≈ 145 µM) | > 128 µg/mL | 128 µg/mL (≈ 581 µM) | 0.5 µg/mL (≈ 2.27 µM) | Oc1nc2nonc2nc1-c1cccs1 | >100 µg/mL
128 µg/mL (≈ 437 µM) | > 128 µg/mL | > 128 µg/mL | > 128 µg/mL | 128 µg/mL (≈ 437 µM) | Oc1nc2nonc2nc1-c1ccccc1Br | >100 µg/mL
64 µg/mL (≈ 276 µM) | 64 µg/mL (≈ 276 µM) | > 128 µg/mL | > 128 µg/mL | 1 µg/mL (≈ 4.31 µM) | Oc1nc2nonc2nc1-c1ccc(F)cc1 | >100 µg/mL
64 µg/mL (≈ 253 µM) | > 128 µg/mL | > 128 µg/mL | > 128 µg/mL | 8 µg/mL (≈ 31.6 µM) | Oc1nc2nonc2nc1-c1c[nH]c2ccccc12 | >100 µg/mL
64 µg/mL (≈ 295 µM) | > 128 µg/mL | > 128 µg/mL | > 128 µg/mL | 8 µg/mL (≈ 36.8 µM) | Cn1cccc1-c1nc2nonc2nc1O | >100 µg/mL
128 µg/mL (≈ 630 µM) | 128 µg/mL (≈ 630 µM) | 128 µg/mL (≈ 630 µM) | > 128 µg/mL | 4 µg/mL (≈ 19.7 µM) | Oc1nc2nonc2nc1-c1ccc[nH]1 | >100 µg/mL
